Tested on: MPP^+-induced PC12 cell injury
Assay: Protective effect on MPP+-induced PC12 cell injury (MTS cell viability)
Experimental: 1. PC12 poorly-differentiated cells were cultured in a medium containing Dulbecco's modified Eagle's medium (DMEM) high glucose+10% fetal bovine serum (FBS)+100 U/mL penicillin-streptomycin, in an incubator at 37° C. and 5% CO2.
2. When growing to 80% to 90%, the PC12 poorly-differentiated cells were subjected to trypsin digestion to obtain a cell suspension.
3. The cell suspension was aspirated into a 15 mL centrifuge tube, followed by centrifugation at 800 rpm for 5 min.
4. After the centrifugation, the centrifuge tube was sterilized with alcohol and placed into an ultra-clean bench, and a supernatant was poured into a waste liquid tank.
5. 5 mL of a new complete medium was added, followed by blowing the medium ten times by a pipette to disperse the cells as much as possible, wherein the blowing should not be performed by too large of a force.
6. 0.02 mL of the cell suspension was taken and added to a cell counting plate for counting.
7. The cell suspension was adjusted to have a cell concentration of 1×10^5 cells/mL, then added to a 96-well plate by 0.1 mL per well, and incubated in a cell incubator.
8. After 23 h, the original medium was aspirated, and a new medium (the formula of which was the same as that in the above step 1) was added; the compound to be tested was added; and 1 h later, MPP^+ was added (a final concentration of the MPP^+ in the system was 750 μM).
9. Experimental design: each group was designed and performed for 3 repetitions:
A blank group included only medium.
A model group (MPP^+) included medium and MPP^+ which was added with a final concentration of 750 μM.
A positive control group (vitamin E) included medium, vitamin E which was added with a final concentration of 0.2 μM, and MPP^+ which was subsequently added with a final concentration of 750 μM.
10. 24 h after adding the MPP^+, MTS was added; after 2 h, values were read for detection.

| Molecule | protective activity against MPP^+-induced PC12 cell injury (at concentrations of 1 μM and 2 μM (P<0.001)) | protective effect on MPP^+-induced PC12 cell injury (screening in the MPP^+-induced PC12 cell injury model, no concentration stated) | Cell viability (%) (0.2 μM compound or VE + 750 μM MPP^+, PC12 cells, MTS 24 h after MPP^+) |
| --- | --- | --- | --- |
| C=C(C=O)[C@@H]1CC[C@@]2(C)CCC=C(C=O)[C@@H]2C1 [PFC-37, (5R,7R,10R)-12,15-dioxo-α-selinene] | significant protective activity | significant protective effect |  |
| vitamin E [reference compound] |  |  | 75.70 ± 0.64 |

— patent US12447136B2, “Use of (5R,7R,10R)-12,15-dioxo-α-selinene in the preparation of drugs” (KUNMING INSTITUTE OF BOTANY, CHINESE ACADEMY OF SCIENCES, priority 2020, dated 2025)
